Tests used:
human caspase-1 = molecular target: T1, human caspase-1 (Homo sapiens, UniProt P29466); experiment: Cysteine protease inhibition assay, caspase-1 (Ac-YVAD-pNA); type: biochemical; conditions: 3 at 100 μM, compared to a DMSO control, chromogenic assay
T1 construct: purchased Abcam
T1 sequence (P29466 120-297 limits assumed): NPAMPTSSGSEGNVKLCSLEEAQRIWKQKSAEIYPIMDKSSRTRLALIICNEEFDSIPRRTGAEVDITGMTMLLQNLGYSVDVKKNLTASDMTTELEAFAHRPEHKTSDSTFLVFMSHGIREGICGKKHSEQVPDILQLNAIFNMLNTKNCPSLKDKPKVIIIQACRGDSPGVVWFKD
T1 sequence (P29466 317-404 limits assumed): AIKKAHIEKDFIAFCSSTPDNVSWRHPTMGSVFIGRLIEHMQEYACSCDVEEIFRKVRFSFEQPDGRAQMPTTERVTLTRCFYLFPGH
Method: The activity of caspase-1 was determined by use of chromogenic substrate Ac-YVAD-pNA (Enzo Life Sciences, NY, USA). The assay was performed by adding 45 μL of 1 Unit caspase-1 (Abcam, MA, USA) and 5 μL of Ac-YVAD-pNA (final concentration, 5 μM) to 50 μL assay buffer (50 mM HEPES pH 7.4, 10 mM DTT, 1 mM EDTA, 0.1% CHAPS, 20% glycerol). Substrate cleavage after 1 h incubation at 37°C was measured by […] absorbance at 400 nm in a benchtop UV/Vis spectrophotometer (UV1800, Shimadzu, Kyoto, Japan).
(§1) Transglutaminases and cysteine proteases have a similar catalytic mechanism involving an active site cysteine and formation of a thioacyl intermediate. […] To test this hypothesis, the inhibition of two cysteine proteases, human caspase-1 and recombinant tobacco etch virus (TEV) protease by 3 at 100 μM were tested using a chromogenic and SDS-PAGE assay, respectively (Figure 9). […] Neither human caspase-1 nor TEV are endogenous proteins in A. gambiae, which may well contain other endogenous targets of 1–3, not least the two other transglutaminases in the A. gambiae genome.

[1] = molecular target: T2, recombinant tobacco etch virus (TEV) protease (Tobacco etch virus, UniProt P04517); experiment: Cysteine protease inhibition assay, TEV protease (GST-gp78 cleavage, SDS-PAGE); type: biochemical; conditions: 3 at 100 μM, compared to a DMSO control
T2 construct: recombinant tobacco etch virus (TEV) protease
Method: The activity of recombinant tobacco etch virus (TEV) protease was determined by cleavage of a fusion protein containing a TEV cleavage site between GST and a 17 kDa fragment of human gp78. TEV and GST-gp78 were incubated at 37°C for 10 min at a substrate:enzyme mass ratio of 10:1. The reaction was stopped by adding 3× loading buffer (150 mM Tris–HCl pH 6.8, 300 mM DTT, 6% (w/v) SDS, 0.06% (w/v) bromophenol blue, 30% (v/v) glycerol). Samples were heated at 95°C for 3 min and separated by 4–20% gradient SDS-PAGE.
as §1

T2 sequence (P04517 2038-2279): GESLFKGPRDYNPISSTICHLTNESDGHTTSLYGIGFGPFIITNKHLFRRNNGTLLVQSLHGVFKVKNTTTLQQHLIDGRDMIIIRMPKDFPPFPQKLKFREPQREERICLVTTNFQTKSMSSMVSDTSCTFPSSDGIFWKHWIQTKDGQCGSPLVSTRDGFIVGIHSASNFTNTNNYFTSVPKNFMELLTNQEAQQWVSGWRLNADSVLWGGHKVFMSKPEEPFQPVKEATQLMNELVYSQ

## O=C(N[C@@H](Cc1c[nH]c2ccccc12)C(=O)NC[C@@H]1CC(Br)=NO1)OCc1cnc2ccccc2c1
Human caspase-1
  Inhibition of caspase-1: no inhibition of the protease
[1]
  Inhibition of TEV protease: no inhibition of the protease

From publication PMC4113009, “Dihydroisoxazole inhibitors of Anopheles gambiae seminal transglutaminase AgTG3” (Malaria Journal, 2014)
